{
  "source": "patent US11472814B2",
  "about": "“Thienopyranones and furanopyranones as checkpoint inhibitors and modulators of anti-tumor immunity” (SignalRx Pharmaceuticals, Inc., priority 2017, dated 2022)",
  "key": {"[1]": {"target": "T1, BRD4-1 (Homo sapiens, UniProt O60885)", "T1 construct": "purchased Reaction Biology Corp., Malvern, Pa; (contract assay service)", "test": "Bromodomain protein inhibition IC50, binding domain 1 of BRD4 (Reaction Biology Corp.)", "conditions": "10-point curve", "text": "The inhibitory activity of a compound of the invention against PI3K and/or BRD4 and/or SYK and/or CDK4/6 can be readily determined using methods known to the skilled artisan, or by commercial vendors offering such services. […] In vivo, PI3K inhibition can be determined from target tissue biopsies by standard tissue processing to disrupt cells and then performing Western Blot analysis to determine the presence or absence of pAKT (substrate of PI3K) relative to a control sample. The activity of a compound of the invention as an inhibitor of a bromodomain-containing protein, such as a BET protein, such as BRD2, BRD3, BRD4, and/or BRDT, or an isoform or mutant thereof, may be determined in vitro, in vivo, or in a cell line. In vitro assays include assays that determine inhibition of bromodomain-containing proteins. Alternatively, inhibitor binding may be determined by running a competition experiment where a provided compound is incubated with a bromodomain-containing protein, such as a BET protein bound to known ligands, labeled or unlabeled. For example, bromodomain inhibition can be determined in vitro using Alpha Screen Technology (http://www.reactionbiologv.com/webapps/site/NewsPDFs/Bromodomain%20Assay %20Platform %20for %20Drug %20Screening %20and %20Discovery.pdf). In vivo bromodomain inhibition can be determined indirectly by evaluating the amount of protein present of proteins whose genes' transcription is influenced or controlled by the bromodomain protein, for example, the MYCN protein transcription is controlled by BRD4 (J. E. Delmore et al., Cell 2011, 146, 904-917; A. Puissant, Cancer Discov. 2013, 3, 308-323). Bromodomain inhibition may also be predicted by in silico modeling as described below in the Examples. Additionally, the company Promega offers a SYK luminescent assay to determine a compound's ability to inhibit the SYK protein (https://www.promega.com/-/media/files/resources/protocols/kinase-enzyme-appnotes/syk-kinase-assay-protocol.pdf?la=en).\nCompounds of the invention were characterized for their ability to inhibit target proteins using third party vendors offering such services. PI3K alpha, gamma, and delta inhibition activity was determined by Thermo Fisher Scientific-Biosciences Life Sciences Solutions, Madison, Wis. The bromodomain protein inhibition (binding domain 1 and 2 of BRD4) as well as SYK inhibition was determined at Reaction Biology Corp., Malvern, Pa. […] The IC50 data (shown below in Table 5) was calculated from a 10-point curve and is expressed in nanomolar concentration (nM) rounded off to the nearest whole number. […]"}, "[2]": {"tested_on": "Bone marrow derived macrophages (BMDMs), M2 gene expression", "test": "M2 marker mRNA in IL4 stimulated bone marrow derived macrophages (RT PCR)", "format": "cell-based, murine", "experimental": "(§1) Bone marrow derived macrophages (MOs) (BMDMs) were exposed to IL4 or LPS for 24 hours to stimulate the M2 or M1 macrophage transition in presence of Compound 1 and the known SYK inhibitor Bay-61-3606 at 1 μM conc. M2 markers Mmr, Ym1, Fizz1 and Mgl mRNA and M1 markers I11, 116 and Tnfa mRNA was quantitated by RT PCR. Values are mean±SEM (n=3-4). Expression of gene of interest is normalized to GAPDH. […] The data provide direct evidence that Compound 1 can block the immunosuppressive macrophage M2 gene expression and activate the M1 gene expression and therefore activate antitumor innate immune cell differentiation in vitro.\n(§2) Relative mRNA expression of IL4 or LPS polarized genes in murine bone marrow derived macrophages (BMDMs) treated with various concentrations of inhibitors in vitro. Conclusion: Compound 3 suppressed in vitro macrophage specific immunosuppressive M2 gene expression markers and augmented macrophage stimulatory immune response M1 genes respectively."}, "[3]": {"tested_on": "Bone marrow derived macrophages (BMDMs), M1 gene expression", "test": "M1 marker mRNA in LPS stimulated bone marrow derived macrophages (RT PCR)", "format": "cell-based, murine", "text": "as §1, with “Bone marrow derived macrophages (MOs) (BMDMs) were exposed to IL4 or LPS for 24 hours to stimulate the M2 or M1 macrophage transition in presence of Compound 1 and the known SYK inhibitor Bay-61-3606 at 1 μM conc.” left out\nas §2"}, "[4]": {"tested_on": "tumor associated macrophages (TAMs) from LLC tumors", "test": "RT-PCR gene expression in tumor associated macrophages sorted from LLC tumors", "format": "in vivo, mice", "text": "RT-PCR analysis of cDNAs generated from mRNAs reflecting tumor associated macrophages (TAMs) isolated from LLC tumors grown in WT animals and treated with Compound 3. ***p<0.001**p<0.01 and *p<0.05, t test. […] Expression of gene of interest is normalized to GAPDH. […] Statistical significance is accessed by t test. For example, Compound 3 augmented IL1 gene expression in TAMs 8-fold and suppressed Arginase (Arg) 98% in TAMs isolated from LLC tumors in vivo."}, "[5]": {"tested_on": "CT26 tumors", "test": "CT26 tumor growth in immunodeficient NSG mice", "format": "in vivo", "conditions": "3 mg/kg", "text": "We investigated the effect of Compound 3 on immune cell in vitro and on tumor growth in in vivo in immunocompetent syngeneic tumor models and the effects on the macrophage and T cell immune compartment in vivo by this compound. […] In order to distinguish whether Compound 3 blocks tumor growth due to its effect on immune cell compartment and not on tumor compartment, we tested the effect of this chemotype on CT26 tumor growth in immunodeficient NSG mice vs immunocompetent Balb/c mice. […] Compound 3 has combinatorial immune-oncologic activity in vivo to stimulate anti-cancer innate and adaptive immunity in well-defined accepted immune competent murine models for cancer immunotherapy.\nConclusion: this establishes effect of Compound 3 as immune-oncologically active agent in cancer immunotherapy. In immunocompetent mice with same tumor cell ino kculum Compound 3 inhibited CT26 tumor growth by 58% decrease in tumor volume. (n=x, p<0.001, t test)."}, "[6]": {"conditions": "Table 7, 200 nM, IL4 polarized murine BMDMs, control = 1"}, "[7]": {"conditions": "Table 8, 200 nM, LPS polarized murine BMDMs, control = 1"}, "[8]": {"conditions": "LLC tumors in WT animals, vs vehicle"}, "[9]": {"conditions": "TAMs isolated from LLC tumors in vivo, vs vehicle"}},
  "note": "“Also recorded” adds a separate entry of the source.",
  "data": [
    {"smiles": "Cc1nn(-c2ccnc(Nc3ccc(-c4csc5c(=O)cc(N6CCOCC6)oc45)cc3)n2)cc1CN1CCC1", "note": "[Compound 3, 3-[p-(4-{4-[(1-Azetidinyl)methyl]-3-methyl-1H-pyrazol-1-yl}-2-pyrimidinylamino)phenyl]-5-morpholino-4-oxa-1-thia-7-indenone]", "values": [
      {"measurement": "IC50", "setting": "[1]", "value": "1 to 5", "unit": "µM"},
      {"measurement": "Arg relative mRNA expression (M2 gene)", "setting": "[2]; [6]", "value": "0.107 ± 0.01"},
      {"measurement": "Il10 relative mRNA expression (M2 gene)", "setting": "[2]; [6]", "value": "0.058 ± 0.01"},
      {"measurement": "Mmr relative mRNA expression (M2 gene)", "setting": "[2]; [6]", "value": "0.143 ± 0.03"},
      {"measurement": "Tgfb relative mRNA expression (M2 gene)", "setting": "[2]; [6]", "value": "0.458 ± 0.01"},
      {"measurement": "Vegf relative mRNA expression (M2 gene)", "setting": "[2]; [6]", "value": "0.294 ± 0.04"},
      {"measurement": "macrophage immunosuppressive M2 gene expression markers", "setting": "[2]; murine BMDMs, IL4 polarized, various concentrations", "value": "suppressed"},
      {"measurement": "Ifng relative mRNA expression (M1 gene)", "setting": "[3]; [7]", "value": "5.043 ± 1.9"},
      {"measurement": "Il1 relative mRNA expression (M1 gene)", "setting": "[3]; [7]", "value": "7.19 ± 0.9"},
      {"measurement": "Il6 relative mRNA expression (M1 gene)", "setting": "[3]; [7]", "value": "2.5 ± 0.2"},
      {"measurement": "Nos2 relative mRNA expression (M1 gene)", "setting": "[3]; [7]", "value": "2.458 ± 0.31"},
      {"measurement": "Tnfa relative mRNA expression (M1 gene)", "setting": "[3]; [7]", "value": "2.2 ± 0.3"},
      {"measurement": "macrophage stimulatory immune response M1 genes", "setting": "[3]; murine BMDMs, LPS polarized, various concentrations", "value": "augmented"},
      {"measurement": "expression of immune response genes in TAMs", "setting": "[4]; [8]", "value": "activated the expression of immune response genes"},
      {"measurement": "expression of macrophage M2 immunosuppressive genes in TAMs", "setting": "[4]; [8]", "value": "suppressed the expression of macrophage M2 immunosuppressive genes"},
      {"measurement": "Nos2 gene expression in macrophages sorted from LLC tumors", "setting": "[4]; TAMs from LLC tumors in treated WT mice, normalized to GAPDH, vehicle 0.95 ± 0.06", "value": "21 ± 0.19"},
      {"measurement": "Vegf gene expression in macrophages sorted from LLC tumors", "setting": "[4]; TAMs from LLC tumors in treated WT mice, normalized to GAPDH, vehicle 0.995 ± 0.06", "value": "0.56 ± 0.05"},
      {"measurement": "Il1 gene expression in macrophages sorted from LLC tumors", "setting": "[4]; TAMs from LLC tumors in treated WT mice, normalized to GAPDH, vehicle 1.0 ± 0.04", "value": "8.3 ± 1.43"},
      {"measurement": "Ifng gene expression in macrophages sorted from LLC tumors", "setting": "[4]; TAMs from LLC tumors in treated WT mice, normalized to GAPDH, vehicle 1 ± 0.3", "value": "3.26 ± 1.04"},
      {"measurement": "Il6 gene expression in macrophages sorted from LLC tumors", "setting": "[4]; TAMs from LLC tumors in treated WT mice, normalized to GAPDH, vehicle 1.0 ± 0.3", "value": "1.8 ± 0.16"},
      {"measurement": "Tgfb gene expression in macrophages sorted from LLC tumors", "setting": "[4]; TAMs from LLC tumors in treated WT mice, normalized to GAPDH, vehicle 1 ± 0.7", "value": "0.35 ± 0.014"},
      {"measurement": "Arg gene expression in macrophages sorted from LLC tumors", "setting": "[4]; TAMs from LLC tumors in treated WT mice, normalized to GAPDH, vehicle 1 ± 0.9", "value": "0.08 ± 0.004"},
      {"measurement": "Arginase (Arg) suppression in TAMs", "setting": "[4]; [9]", "value": 98, "unit": "%"},
      {"measurement": "IL1 gene expression in TAMs, augmentation", "setting": "[4]; [9]", "value": 8, "unit": "fold"},
      {"measurement": "% Growth inhibition", "setting": "[5]; CT26 tumors in immunodeficient NSG mice, negative = increase in tumor growth", "value": "−33 ± 27", "unit": "%"},
      {"measurement": "CT26 tumor growth in NSG mice", "setting": "[5]; immunodeficient NSG mice", "value": "did not reduce CT26 tumor growth; also recorded: no significant effect"}
    ]}
  ]
}
